The target of series [1] is T1, progesterone receptor (PR) (Homo sapiens, UniProt P06401).
T1 construct: alkaline phosphatase assay with the T47D human breast cancer cell line; endogenous in cells; host or cells: T47D
T1 sequence (P06401 1-933): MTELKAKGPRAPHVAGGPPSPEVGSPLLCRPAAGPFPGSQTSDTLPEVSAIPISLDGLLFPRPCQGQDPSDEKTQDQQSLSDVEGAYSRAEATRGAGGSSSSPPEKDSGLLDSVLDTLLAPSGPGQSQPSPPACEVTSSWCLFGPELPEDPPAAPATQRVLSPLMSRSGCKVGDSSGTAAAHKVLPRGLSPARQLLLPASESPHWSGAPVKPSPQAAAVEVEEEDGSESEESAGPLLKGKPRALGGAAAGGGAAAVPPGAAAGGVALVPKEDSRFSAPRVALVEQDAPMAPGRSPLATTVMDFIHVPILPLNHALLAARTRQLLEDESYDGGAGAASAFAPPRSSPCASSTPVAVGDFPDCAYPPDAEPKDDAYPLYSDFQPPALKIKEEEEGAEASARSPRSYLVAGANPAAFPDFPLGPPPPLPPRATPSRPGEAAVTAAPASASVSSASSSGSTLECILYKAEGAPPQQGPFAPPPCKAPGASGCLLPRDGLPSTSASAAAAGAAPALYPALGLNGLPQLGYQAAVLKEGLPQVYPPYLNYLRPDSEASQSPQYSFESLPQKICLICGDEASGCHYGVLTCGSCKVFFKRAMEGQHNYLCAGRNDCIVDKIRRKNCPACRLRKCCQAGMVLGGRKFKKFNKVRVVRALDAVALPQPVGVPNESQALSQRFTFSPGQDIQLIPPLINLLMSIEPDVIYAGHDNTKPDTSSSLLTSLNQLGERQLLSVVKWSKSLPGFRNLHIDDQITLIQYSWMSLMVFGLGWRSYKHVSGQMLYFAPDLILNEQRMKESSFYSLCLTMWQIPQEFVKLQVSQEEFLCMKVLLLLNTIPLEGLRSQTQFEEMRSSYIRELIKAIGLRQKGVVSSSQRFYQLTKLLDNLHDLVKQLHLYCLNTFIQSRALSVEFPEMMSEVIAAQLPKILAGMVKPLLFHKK
In words: T47D alkaline phosphatase assay, PR antagonistic activity in the presence of 1 nM P4. It counts as cell-based. The settings on record: T47D cells, 1.0 nM P4, 48 h; mean ± SD from three independent experiments. The method, then:
The PR agonistic and antagonistic activities of the synthesized phosphine–borane derivatives were evaluated using an alkaline phosphatase assay with the T47D human breast cancer cell line. […] The basal alkaline phosphatase activity was also not affected by the tested compounds alone. […] The PR antagonistic activities of the compounds were assessed in the presence of 1 nM of P4 (5). We also calculated the molecular volume of each compound to investigate the structure–activity relationship (SAR). Table 2 summarizes the PR antagonistic activity and calculated volumes of the synthesized compounds. […] We investigated the binding affinity of the compounds toward the PR ligand-binding domain (LBD) using a fluorescence polarization assay system. […] We also investigated the activity of compounds 28 and 34 toward the androgen receptor (AR) by means of cell-proliferation promoting/inhibitory activity toward androgen-dependent SC-3 cells. […].
T47D alkaline phosphatase assays were performed as previously described, with minor modifications. Briefly, the human breast cancer cell line T47D (HMS LINCS database Accession Numbers: 50541) was routinely cultivated in RPMI 1640 medium with 10% FBS at 37 °C in a 5% CO2 humidified incubator. The cells were plated in 96-well plates and incubated overnight in a 5% CO2 humidified incubator at 37 °C. The next day, the cells were treated with a fresh medium containing the test compound in the presence of 1 nM of progesterone and further incubated for 48 h. The medium was aspirated, and the cells were fixed with 100 μL of 1.8% formalin–PBS. The fixed cells were washed with PBS, and 100 μL of an assay buffer (1 mg/mL p-nitrophenol phosphate in diethanolamine water solution, pH 9.0) was added. The mixture was incubated at room temperature for 2 h under light-shielded conditions. The absorbance was measured at 405 nm using a DTX 880 Multimode Detector (Beckman Coulter, Brea, CA, USA). All data points were measured in triplicate, and IC50 values were calculated from three independent experiments.

A short description of series [2]: LogP (1-octanol/water partition coefficient) determined using HPLC. It is filed as physicochemical. Here is the method:
Hydrophobicity is a key determinant of the activity and pharmacokinetics of biologically active compounds, and the octanol–water partition coefficient (P) and logarithm value (LogP) are widely used hydrophobicity parameters. The LogP values of the synthesized compounds were determined using HPLC [45, 46]. Table 1 summarizes the experimentally determined LogP values and calculated values. […] From the viewpoint of the phosphine structure, an increase in the number of carbon atoms increased hydrophobicity in a predictable manner.
The 1-octanol/water partition coefficient P was determined using HPLC based on the OECD Guideline for Testing Chemicals. A COSMOSIL Packed Column 5C18-MS-II (5 μm, 150 mm × 4.6 mm id, Nacalai Tesque, Inc., Kyoto, Japan) was fitted on an HPLC instrument (Multiwavelength Detector, MD-2010 Plus. JASCO, Tokyo, Japan) equipped with a pump (PU-2080, JASCO) and an oven (SSC-2120, Senshu Scientific Co., Ltd., Tokyo, Japan). The injection volume was 20 µL; the mobile phase was methanol–water 75% (v/v); and the flow rate was 1.0 mL/min in all cases. Compounds were detected by measuring the UV absorption at 240 nm. The temperature of the column was kept at 40.0 (± 0.1) °C during the measurement. The measurement was performed in triplicate, and the mean value was calculated. The dead time t0 was measured with thiourea as the unretained compound, and the capacity factor k was calculated using the equation logk = log (tr − t0/t0), where tr represents the retention time of the compound. A calibration graph was determined experimentally using reference compounds (4-methylphenol, 4-chlorophenol, 4-phenylphenol, diphenylether, fluoranthene, and dichlorodiphenyltrichloroethane) with known logP values. The LogP values of phosphine–boranes were calculated based on a calibration graph (LogP = 2.6269 logkw + 3.059, R^2 = 0.9915).

Setting [3] is: HPLC, tentative value: hydrophobicity beyond the range of the reference compounds (1.9 < LogP < 6.5).

The term melting point denotes the temperature of the solid-liquid transition. A word on the IC50: it is the concentration that gives 50% inhibition. As usually defined, the chromatographic logP is lipophilicity estimated from chromatographic retention.

With `CCCC[P+]([BH2-]c1ccc(C(F)(F)F)cc1)(CCCC)CCCC` [Compound 35, B-4-(Trifluoromethyl)phenyl Tri-n-butylphosphine–Borane], the melting point fell in the range of 33.2 to 33.8 °C. For the same compound, the 50% inhibitory concentration (IC50) in series [1] was greater than 10 µM. The same compound returned a chromatographic logP in series [2] (setting [3]) of 7.5.
In the case of `FC(F)(F)c1ccc([BH2-][P+](C2CCCC2)(C2CCCC2)C2CCCC2)cc1` [Compound 36, B-4-(Trifluoromethyl)phenyl Tricyclopentylphosphine–Borane], the melting point lay within 88 to 88.6 °C. For the same compound, in series [1], the IC50 was found to be 2.63 ± 0.72 µM. Also, the chromatographic logP in series [2] (setting [3]) was determined as 7.95.
In the same order, the values of `FC(F)(F)c1ccc([BH2-][P+](C2CCCCC2)(C2CCCCC2)C2CCCCC2)cc1` [Compound 37, B-4-(Trifluoromethyl)phenyl Tricyclohexylphosphine–Borane] are 126.7 to 127 °C, greater than 10 µM and 8.97.
For `CN(C)[P+]([BH2-]c1ccc(C(F)(F)F)cc1)(N(C)C)N(C)C` [Compound 39, B-4-(Trifluoromethyl)phenyl Tris(dimethylamino)phosphine–Borane], the melting point is 41.1 to 41.6 °C. Further, in series [1], the IC50 was determined as 1.4 ± 0.88 µM. Moreover, the chromatographic logP in series [2] (HPLC (OECD guideline), C18 column, methanol–water 75% (v/v), 40 °C, mean of triplicate) is 5.64.

These data come from PMC11013038, “Design, Synthesis, and Evaluation of B-(Trifluoromethyl)phenyl Phosphine–Borane Derivatives as Novel Progesterone Receptor Antagonists” (Molecules, 2024).
